By GI50 is commonly meant the concentration at which growth is held to half of that of the control. Lower therefore signals greater sensitivity of the cells. In general, pIC50 refers to −log10 of the IC50, conventionally taken in molar units.

Each structure is given as a SMILES string. pIC50: −log10 of the molar value. A value given as a limit tells only on which side of the number the result lay.

Consider 46 molecules from ChEMBL document CHEMBL3352299, “Antiproliferative 4-(1,2,4-oxadiazol-5-yl)piperidine-1-carboxamides, a new tubulin inhibitor chemotype” (Bioorg Med Chem Lett, 2014).

Experiment [1] deals with DU-145. As to the kind of experiment: Antiproliferative activity against human DU145 cells after 3 days by fluorescence assay. The experiment is classed as functional. To be noted: DU-145, 72 h.
For experiment [2], the system named is DU-145. The experiment in a line: Antiproliferative activity against human DU145 cells at 50 uM after 3 days by fluorescence assay. Conditions: DU-145, 72 h, read-out: GI. The experiment is classed as functional.
The target in experiment [3] is Tubulin. As to the kind of experiment: Displacement of [3H]-colchicine from tubulin (unknown origin) after 10 mins by turbidimetrically. The experiment is classed as protein-complex assay, Homo sapiens. (In a radioligand displacement assay an active substance lowers the binding of a labelled ligand.)
Experiment [4] deals with K562. As to the kind of experiment: Induction of mitotic arrest in human K562 cells assessed as growth inhibition by light microscopy. The class given is functional, cell-based.
Experiment [5] has as its system K562. As to the kind of experiment: Induction of mitotic arrest in human K562 cells assessed as mitotic indices at 5 uM by light microscopy. The experiment is classed as functional.

Consider `O=C(NCc1ccc2c(c1)OCO2)N1CCC(c2nc(-c3ccc(F)cc3)no2)CC1`, for which it took 1300 nM to inhibit growth in experiment [1] by half (GI50).

`COCCNC(=O)N1CCC(c2nc(-c3ccc(F)cc3)no2)CC1`: the inhibition of growth at 50 µM in experiment [2] was below 20%. Consider `O=C(NCc1ccccc1)N1CCC(c2nc(Cc3ccccc3)no2)CC1`, for which the GI50 in experiment [1] is 760 nM. For the molecule `Cc1noc(C2CCN(C(=O)NCc3ccccc3)CC2)n1`, the inhibition of growth at 50 µM in experiment [2] was below 20%. On to `O=C(N1CCC(c2nc(-c3ccc(F)cc3)no2)CC1)N1CCc2ccccc21`, for which, in experiment [2], the inhibition of growth at 50 µM was below 20%.

`O=C(N1CCCCC1)N1CCC(c2nc(-c3ccc(F)cc3)no2)CC1`: the inhibition of growth at 50 µM in experiment [2] is below 20%. In the case of `Cc1ccccc1-c1noc(C2CCN(C(=O)NCc3ccccc3)CC2)n1`, in experiment [1], the GI50 amounted to 12300 nM.

With `O=C(NCc1ccccc1)N1CCC(c2nc(CCN3CCOCC3)no2)CC1`, halving of growth in experiment [1] (GI50) required 11200 nM. In turn, `O=C(NCc1ccccc1)N1CCC(c2nc(CCN3CCc4ccccc4C3)no2)CC1` had a GI50 in experiment [1] of 8600 nM. With `O=C(NCc1ccsc1)N1CCCC1c1nc(Cc2ccccc2)no1` (centres undefined), the inhibition of growth at 50 µM in experiment [2] is below 20%.

`O=C(NCc1ccccc1)N1CCC(c2nc(-c3ccc(F)cc3)no2)CC1`: the GI50 in experiment [1] is 2800 nM. The results for the pIC50 in experiment [3] and in experiment [4] were 5.80 and 5.92, respectively. The Activity in experiment [5] is reported as 72%. As for `O=C(NCC1CC1)N1CCC(c2nc(-c3ccc(F)cc3)no2)CC1`, the inhibition of growth at 50 µM in experiment [2] was below 20%.

In turn, `O=C(NCCc1ccccc1)N1CCC(c2nc(-c3ccc(F)cc3)no2)CC1` showed a GI50 in experiment [1] of 13600 nM. Take `O=C(NCc1ccsc1)N1CCCC(c2nc(Cc3ccccc3)no2)C1` (centres undefined): in experiment [2], the inhibition of growth at 50 µM was below 20%. Consider `O=C(N1CCC(c2nc(-c3ccc(F)cc3)no2)CC1)N1CCCc2ccccc21`, for which the inhibition of growth at 50 µM in experiment [2] is below 20%.

Molecule `O=C(NCc1ccccc1)N1CCC(c2nc(-c3ccccc3)no2)CC1` came in with a GI50 in experiment [1] of 1900 nM. For the same molecule, the pIC50 in experiment [3] was 5.74; in experiment [4] it was 5.82. Further, the Activity in experiment [5] is reported as 75%. For `O=C(NCc1ccsc1)N1CCC(c2nc(Cc3ccccc3)no2)CC1`, in experiment [1], the GI50 is 120 nM.

In the case of `O=C(NCc1ccccc1)N1CCC(c2nc(-c3ccc(F)cc3Cl)no2)CC1`, in experiment [1], the GI50 worked out at 2900 nM. Molecule `COc1cc(OC)cc(-c2noc(C3CCN(C(=O)NCc4ccccc4)CC3)n2)c1` registered a GI50 in experiment [1] of 4400 nM.

Turning to `COC(=O)CNC(=O)N1CCC(c2nc(-c3ccc(F)cc3)no2)CC1`, the inhibition of growth at 50 µM in experiment [2] was below 20%.

The molecule `COc1cccc(NC(=O)N2CCC(c3nc(-c4ccc(Cl)cc4)no3)CC2)c1` displayed a GI50 in experiment [1] of 9500 nM. In addition, the pIC50 in experiment [3] was 5.28. In experiment [1], `Cc1cc(CNC(=O)N2CCC(c3nc(Cc4ccccc4)no3)CC2)nn1C` came in with a GI50 of 950 nM.

As to `O=C(NCc1cccs1)N1CCC(c2nc(-c3ccc(F)cc3)no2)CC1`, in experiment [1], halving of growth (GI50) required 1700 nM. In experiment [1], `Cc1cc(CNC(=O)N2CCC(c3nc(-c4ccc(F)cc4)no3)CC2)nn1C` showed a GI50 of 940 nM. Same read-out and setting: the same measure for `O=C(N1CCC(c2nc(-c3ccc(F)cc3)no2)CC1)N1CCc2ccccc2C1`: 21000 nM. The molecule `O=C(NCCc1c[nH]c2ccccc12)N1CCC(c2nc(-c3ccc(F)cc3)no2)CC1` displayed a GI50 in experiment [1] of 9800 nM. Regarding `CC(C)(C)NC(=O)N1CCC(c2nc(-c3ccc(F)cc3)no2)CC1`, in experiment [2], the inhibition of growth at 50 µM is below 20%.

Molecule `O=C(NCc1ccoc1)N1CCC(c2nc(-c3ccc(F)cc3)no2)CC1` displayed a GI50 in experiment [1] of 1100 nM.

In experiment [1], `O=C(NCc1ccccc1)N1CCC(c2nc(COc3ccccc3)no2)CC1` gave a 50% growth inhibitory concentration (GI50) of 520 nM. Regarding `CC(C)Cc1noc(C2CCN(C(=O)NCc3ccccc3)CC2)n1`, the inhibition of growth at 50 µM in experiment [2] is below 20%. Turning to `Cc1ccc(-c2noc(C3CCN(C(=O)NCc4ccco4)CC3)n2)cc1`, the GI50 in experiment [1] came to 2200 nM. In experiment [3], the pIC50 was 5.64. Regarding `O=C(N1CCOCC1)N1CCC(c2nc(-c3ccc(F)cc3)no2)CC1`, the inhibition of growth at 50 µM in experiment [2] was below 20%. As to `O=C(NCc1ccsc1)N1CCC(c2nc(Cc3ccccc3)no2)C1` (centres undefined), the GI50 in experiment [1] was determined as 6500 nM.

Consider `O=C(NCc1ccco1)N1CCC(c2nc(-c3ccc(F)cc3)no2)CC1`, for which it took 3300 nM to inhibit growth in experiment [1] by half (GI50). In experiment [1], `O=C(NCc1ccco1)N1CCC(c2nc(-c3ccc(Cl)cc3)no2)CC1` showed a GI50 of 2700 nM. In addition, the pIC50 in experiment [3] was 5.70. Turning to `O=C(NCc1ccsc1)N1CCCCC1c1nc(Cc2ccccc2)no1` (centres undefined), the inhibition of growth at 50 µM in experiment [2] was below 20%. As for `O=C(NCc1ccsc1)N1CCC(c2nc(-c3ccc(F)cc3)no2)CC1`, the GI50 in experiment [1] came to 650 nM. In experiment [1], `O=C(NCc1ccsc1)N1CCC(c2nc(COc3ccccc3)no2)CC1` yielded a GI50 of 1700 nM. `O=C(NCc1ccccc1)N1CCC(c2nc(-c3ccccc3Cl)no2)CC1` gave a GI50 in experiment [1] of 9300 nM. The pIC50 in experiment [3] is 5.59. With `CCCCNC(=O)N1CCC(c2nc(-c3ccc(F)cc3)no2)CC1`, the inhibition of growth at 50 µM in experiment [2] was below 20%. For the molecule `Cc1ccc(-c2noc(C3CCN(C(=O)NCc4ccccc4)CC3)n2)cc1`, halving of growth in experiment [1] (GI50) required 1600 nM. Also, the pIC50 in experiment [3] is 5.96; in experiment [4] it was 6.26. The Activity in experiment [5] worked out at 83%.

Consider `C#CCNC(=O)N1CCC(c2nc(-c3ccc(F)cc3)no2)CC1`, for which the inhibition of growth at 50 µM in experiment [2] was below 20%. `Cc1cc(CNC(=O)N2CCC(c3nc(COc4ccccc4)no3)CC2)nn1C` gave a GI50 in experiment [1] of 2800 nM.

In the case of `Cc1cccc(-c2noc(C3CCN(C(=O)NCc4ccccc4)CC3)n2)c1`, it took 1200 nM to inhibit growth in experiment [1] by half (GI50). In the case of `O=C(NCc1ccco1)N1CCC(c2nc(-c3ccccc3)no2)CC1`, the GI50 in experiment [1] turned out to be 6000 nM.

`CN(Cc1ccco1)C(=O)N1CCC(c2nc(-c3ccc(F)cc3)no2)CC1`: halving of growth in experiment [1] (GI50) required 17000 nM.
